Experimental data: patent US11999727B2 (Tango Therapeutics, Inc., priority 2020, dated 2024)
Like-named read-outs stand apart in the source and are kept apart here.

Columns and labels:
[1] = tested on: HAP1 MTAP-deleted cell line; experiment: SDMA in-cell western assay, HAP1 MTAP-deleted; format: cell-based; settings: for IC50: Homo sapiens; for MTAP intact/deleted ratio: SDMA in-cell western
Procedure, shortened: (§1)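 Isogenic HAP1 pair: the MTAP-intact line expresses endogenous MTAP, and the deleted line is MTAP-null. Symmetric dimethylarginine was detected by in-cell western and IC50 values derived for each line.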

[2] = tested on: HAP1 MTAP-deleted cell line; experiment: Viability assay, MTAP-deleted cell line; format: cell-based; settings: Homo sapiens
Text: Table 1 additionally indicates IC50 values in a viability assay for the MTAP-deleted cell line (column 10), indicating the effect of treatment with compound on cell survival.

[3] = tested on: HAP1 MTAP-intact cell line; experiment: SDMA in-cell western assay, HAP1 MTAP-intact; format: cell-based; settings: Homo sapiens
Procedure, shortened: as §1

PRMT5 [4] = molecular target: T1, PRMT5 (Homo sapiens, UniProt O14744); experiment: PRMT5 biochemical IC50 assay with MTA as cofactor
T1 construct: purchased Viva (custom protein)
T1 sequence (O14744 whole entry): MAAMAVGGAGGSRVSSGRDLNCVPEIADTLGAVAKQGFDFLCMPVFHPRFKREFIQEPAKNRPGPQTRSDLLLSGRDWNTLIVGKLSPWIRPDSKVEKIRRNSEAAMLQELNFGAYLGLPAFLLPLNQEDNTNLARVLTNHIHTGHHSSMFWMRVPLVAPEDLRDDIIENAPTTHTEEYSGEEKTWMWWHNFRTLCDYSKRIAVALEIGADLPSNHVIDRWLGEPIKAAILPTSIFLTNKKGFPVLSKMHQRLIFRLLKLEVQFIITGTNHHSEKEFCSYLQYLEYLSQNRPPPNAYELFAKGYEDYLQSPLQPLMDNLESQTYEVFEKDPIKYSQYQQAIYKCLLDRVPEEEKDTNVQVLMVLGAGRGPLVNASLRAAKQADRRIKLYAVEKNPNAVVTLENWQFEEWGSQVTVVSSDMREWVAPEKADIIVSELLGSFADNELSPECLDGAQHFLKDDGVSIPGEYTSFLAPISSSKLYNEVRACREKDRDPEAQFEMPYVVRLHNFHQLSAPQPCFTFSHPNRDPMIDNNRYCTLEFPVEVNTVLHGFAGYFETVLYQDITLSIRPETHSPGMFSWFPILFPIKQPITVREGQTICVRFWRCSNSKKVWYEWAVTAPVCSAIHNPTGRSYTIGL
T1 sequence (Q9BQA1 whole entry partner): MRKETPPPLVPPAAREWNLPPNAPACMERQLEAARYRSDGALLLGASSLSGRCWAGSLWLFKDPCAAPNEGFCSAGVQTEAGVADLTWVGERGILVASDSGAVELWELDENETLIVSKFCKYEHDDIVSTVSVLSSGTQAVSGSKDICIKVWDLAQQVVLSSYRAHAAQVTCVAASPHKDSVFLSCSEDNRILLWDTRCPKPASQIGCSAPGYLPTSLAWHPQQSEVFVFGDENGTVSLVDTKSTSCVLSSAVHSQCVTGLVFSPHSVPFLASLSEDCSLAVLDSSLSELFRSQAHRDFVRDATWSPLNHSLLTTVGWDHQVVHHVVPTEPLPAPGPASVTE

PRMT5 [5] = molecular target: T1, PRMT5; experiment: PRMT5 biochemical IC50 assay with SAM as cofactor
[6] = HAP1, SDMA in-cell western, HAP1 MTAP-deleted, read-out: HAP 1 MTAP deleted IC50
[7] = IC50 ratio HAP1 MTAP-intact / HAP1 MTAP-deleted
[8] = HAP1, viability, HAP1 MTAP-deleted cell line, read-out: HAP1 MTAP deleted viability
[9] = HAP1, SDMA in-cell western, HAP1 MTAP-intact, read-out: MTAP HAP1 intact IC50
[10] = PRMT5, MTA as cofactor, read-out: MTA IC50
[11] = PRMT5, SAM as cofactor, read-out: SAM IC50
[12] = HAP1, SDMA in-cell western, HAP1 MTAP-deleted, read-out: HAP1 MTAP deleted IC50
[13] = IC50 ratio HAP1 MTAP-intact vs HAP1 MTAP-deleted
[14] = HAP1, viability assay, MTAP-deleted cell line, read-out: HAP1 MTAP deleted viability
[15] = HAP1, read-out: HAP1 MTAP deleted IC50
[16] = HAP1, read-out: HAP1 MTAP deleted viability
[17] = HAP1, read-out: MTAP HAP1 intact IC50

Row | SMILES | IC50 [3, 9] [nM] | IC50 (PRMT5 [4]; [10]) [nM] | IC50 (PRMT5 [5]; [11]) [nM] | IC50 [1, 15] [nM] | IC50 [2, 16] [nM] | IC50 [3, 17] [nM] | other results
1 | CO[C@H]1C[C@H](c2ccc3scnc3c2)N(C(=O)C(=O)Nc2cncc(C(N)=O)c2)C[C@H]1C (single isomer, unassigned) [Compound 1221] | > 1000 | 50 to 500 | > 500 |  |  |  | IC50 [1, 12]: 100 to 1000 nM; MTAP intact/deleted ratio [1, 13]: A (an IC50 ratio greater than or equal to 10 fold); IC50 [2, 14]: 1000 to 10000 nM
2 | Cc1cc(NC(=O)C(=O)N2C[C@H](C)CC[C@H]2c2ccc3[nH]ccc3c2)cnc1N (single isomer, unassigned) [Compound 385] |  |  |  | < 100 | < 1000 | 100 to 1000 | 
3 | Cc1cc(NC(=O)C(=O)N2C[C@H](C)CC[C@H]2c2ccc3sc(C4CCN(C)CC4)nc3c2)cnc1N (single isomer, unassigned) [Compound 1293] |  |  |  | < 100 | < 1000 | 100 to 1000 | 
4 | CCc1cc(NC(=O)C(=O)N2C[C@@H](C)CC[C@@H]2c2ccc3scnc3c2)cnc1N (stereo in doubt) [Compound 701, N-(6-amino-5-ethyl-3-pyridyl)-2-[(2R,5S)-2-(1,3-benzothiazol-5-yl)-5-methyl-1-piperidyl]-2-oxo-acetamide] |  |  |  | < 100 | < 1000 | 100 to 1000 | 
5 | Cc1cc(NC(=O)C(=O)N2CCCC[C@H]2c2ccccc2)cnc1C (single isomer, unassigned) [Compound 188] |  |  |  | > 1000 | > 10000 | > 1000 | 
6 | CCc1cc(NC(=O)C(=O)N2C[C@@H](C)CC[C@@H]2c2ccc3sc(C4(O)CCN(C)CC4)nc3c2)cnc1N [Compound 1107] |  |  |  | < 100 | < 1000 | < 100 | MTAP intact/deleted ratio [1, 13]: B (an IC50 ratio greater than or equal to 3 fold but lower than 10 fold); IC50 (PRMT5 [4]; MTA IC50, PRMT5, MTA as cofactor): < 50 nM; IC50 (PRMT5 [5]; SAM IC50, PRMT5, SAM as cofactor): < 50 nM
7 | Cc1cc(NC(=O)C(=O)N2C[C@@H](C)CC[C@@H]2c2ccc3[nH]cnc3c2)cnc1N (single isomer, unassigned) [Compound 408] |  |  |  | < 100 | < 1000 | 100 to 1000 | 
8 | C[C@@H]1CC[C@@H](c2ccc(O)cc2)N(C(=O)C(=O)Nc2cncc(C(N)=O)c2)C1 (single isomer, unassigned) [Compound 297] |  |  |  | > 1000 | > 10000 | > 1000 | 
9 | Cc1cc(NC(=O)C(=O)N2C[C@@H](C)CC[C@@H]2c2ccc3sc(N4CCN(C)CC4)nc3c2)cnc1N [Compound 1158, N-(6-amino-5-methylpyridin-3-yl)-2-((2R,5S)-5-methyl-2-(2-(4-methylpiperazin-1-yl)benzo[d]thiazol-5-yl)piperidin-1-yl)-2-oxoacetamide] |  |  |  | < 100 | < 1000 | < 100 | 
10 | Cc1cc(NC(=O)C(=O)N2C[C@@H](C)CC[C@@H]2c2ccc3sc([C@H]4CCN(C)C(=O)C4)nc3c2)cnc1N [Compound 1333, N-(6-amino-5-methylpyridin-3-yl)-2-((2R,5S)-5-methyl-2-(2-(1-methyl-2-oxopiperidin-4-yl)benzo[d]thiazol-5-yl)piperidin-1-yl)-2-oxoacetamide] |  |  |  | < 100 | < 1000 | < 100 | 
11 | Cc1cc(NC(=O)C(=O)N2C[C@@H](C)CC[C@@H]2c2ccc3[nH]ccc3c2)cnc1N (single isomer, unassigned) [Compound 388] |  |  |  | > 1000 | > 10000 | > 1000 | 
12 | COc1ncc(NC(=O)C(=O)N2C[C@@H](C)CC[C@@H]2c2cccc(N3CCN(C)CC3)c2)cc1C(N)=O [Compound 1277, 2-methoxy-5-(2-((2R,5S)-5-methyl-2-(3-(4-methylpiperazin-1-yl)phenyl)piperidin-1-yl)-2-oxoacetamido)nicotinamide] | 100 to 1000 | < 50 | 50 to 500 |  |  |  | IC50 [1, 6]: < 100 nM; MTAP intact/deleted ratio [1, 7]: A (an IC50 ratio greater than or equal to 10 fold); IC50 [2, 8]: < 1000 nM
13 | C[C@@H]1CC[C@@H](c2ccc3[nH]ccc3c2)N(C(=O)C(=O)Nc2cncc(C(N)=O)c2)C1 (single isomer, unassigned) [Compound 372] |  |  |  | > 1000 | > 10000 | > 1000 | 
14 | COc1ncc(NC(=O)C(=O)N2C[C@@H](C)CC[C@@H]2c2ccc3sc(C4CCN(C)CC4)nc3c2)cc1C(N)=O (single isomer, unassigned) [Compound 1126] |  |  |  | < 100 | < 1000 | < 100 | 
15 | CCc1cc(NC(=O)C(=O)N2C[C@H](C)CC[C@H]2c2ccc3scnc3c2)cnc1N (stereo in doubt) [Compound 694, N-(6-amino-5-ethyl-3-pyridyl)-2-[(2S,5R)-2-(1,3-benzothiazol-5-yl)-5-methyl-1-piperidyl]-2-oxo-acetamide] |  |  |  | 100 to 1000 | 1000 to 10000 | > 1000 | 
16 | C[C@H]1CC[C@H](c2ccc3[nH]ncc3c2)N(C(=O)C(=O)Nc2cncc(C(N)=O)c2)C1 (single isomer, unassigned) [Compound 360] |  |  |  | > 1000 | > 10000 | > 1000 | 
17 | [2H]c1nc2cc([C@H]3CC[C@H](C)CN3C(=O)C(=O)Nc3cnc(N)c(C)c3)ccc2s1 [Compound 1177] |  |  |  | < 100 | < 1000 | 100 to 1000 | 

Continued, in another order:

Row | IC50 [3, 9] [nM] | IC50 (PRMT5 [4]; [10]) [nM] | IC50 (PRMT5 [5]; [11]) [nM] | SMILES | IC50 [1, 15] [nM] | IC50 [2, 16] [nM] | IC50 [3, 17] [nM] | other results
18 | 100 to 1000 | < 50 | 50 to 500 | CCc1cc(NC(=O)C(=O)N2C[C@@H](C)CC[C@@H]2c2cccc(CCCN(C)C)c2)cnc1N [Compound 1393, N-(6-amino-5-ethylpyridin-3-yl)-2-((2R,5S)-2-(3-(3-(dimethylamino)propyl)phenyl)-5-methylpiperidin-1-yl)-2-oxoacetamide] |  |  |  | IC50 [1, 6]: < 100 nM; MTAP intact/deleted ratio [1, 7]: A (an IC50 ratio greater than or equal to 10 fold); IC50 [2, 8]: < 1000 nM
19 | 100 to 1000 | < 50 | < 50 | CCc1cc(NC(=O)C(=O)N2C[C@@H](C)CC[C@@H]2c2cccc(C(F)(F)CCN(C)C)c2)cnc1N [Compound 1381, N-(6-amino-5-ethylpyridin-3-yl)-2-((2R,5S)-2-(3-(3-(dimethylamino)-1,1-difluoropropyl)phenyl)-5-methylpiperidin-1-yl)-2-oxoacetamide] |  |  |  | IC50 [1, 6]: < 100 nM; MTAP intact/deleted ratio [1, 7]: A (an IC50 ratio greater than or equal to 10 fold); IC50 [2, 8]: < 1000 nM
20 | 100 to 1000 | < 50 | 50 to 500 | CCc1cc(NC(=O)C(=O)N2C[C@@H](C)CC[C@@H]2c2cccc(Oc3cccnc3)c2)cnc1N [Compound 1180] |  |  |  | IC50 [1, 12]: < 100 nM; MTAP intact/deleted ratio [1, 13]: A (an IC50 ratio greater than or equal to 10 fold); IC50 [2, 14]: < 1000 nM
21 | 100 to 1000 | < 50 | 50 to 500 | CCc1cc(NC(=O)C(=O)N2C[C@@H](C)CC[C@@H]2c2cccc(Oc3cc(C)nc(C)c3)c2)cnc1N [Compound 1297, N-(6-amino-5-ethylpyridin-3-yl)-2-((2R,5S)-2-(3-((2,6-dimethylpyridin-4-yl)oxy)phenyl)-5-methylpiperidin-1-yl)-2-oxoacetamide] |  |  |  | IC50 [1, 6]: < 100 nM; IC50 [2, 8]: < 1000 nM
22 | > 1000 |  |  | COc1ncc(NC(=O)C(=O)N2C[C@H](C)CC[C@H]2c2ccc3sccc3c2)cc1C(N)=O (relative stereo) [Compound 633, 5-[[2-[(2S,5R)-2-(benzothiophen-5-yl)-5-methyl-1-piperidyl]-2-oxo-acetyl]amino]-2-methoxy-pyridine-3-carboxamide] |  |  |  | IC50 [1, 6]: > 1000 nM; MTAP intact/deleted ratio [1, 7]: C (an IC50 ratio of less than 3 fold); IC50 ([2]; HAP1, viability IC50, MTAP-deleted cell line, read-out: HAP1 MTAP deleted viability): > 10000 nM
23 | < 100 | < 50 | 50 to 500 | CCc1cc(NC(=O)C(=O)N2C[C@@H](C)CC[C@@H]2c2cccc(OCCCN(C)C)c2)cnc1N [Compound 1384, N-(6-amino-5-ethylpyridin-3-yl)-2-((2R,5S)-2-(3-(3-(dimethylamino)propoxy)phenyl)-5-methylpiperidin-1-yl)-2-oxoacetamide] |  |  |  | IC50 [1, 6]: < 100 nM; MTAP intact/deleted ratio [1, 7]: A (an IC50 ratio greater than or equal to 10 fold); IC50 [2, 8]: < 1000 nM
24 | 100 to 1000 | 50 to 500 | 50 to 500 | CCc1cc(NC(=O)C(=O)N2C[C@@H](C)CC[C@@H]2c2ccc(N3CCN(C)CC3)c(Cl)c2)cnc1N (racemic) [Compound 1265, N-(6-Amino-5-ethyl-3-pyridyl)-2-oxo-2-[rac-(2R,5S)-2-[3-chloro-4-(4-methylpiperazin-1-yl)phenyl]-5-methyl-1-piperidyl]acetamide] |  |  |  | IC50 [1, 6]: < 100 nM; MTAP intact/deleted ratio [1, 7]: A (an IC50 ratio greater than or equal to 10 fold); IC50 [2, 8]: < 1000 nM
